pIC50: −log10 of the molar value.
Target: T1, Probable integral membrane cytochrome D ubiquinol oxidase (Subunit II) CydB (Cytochrome BD-I oxidase subunit II) (Mycobacterium tuberculosis (strain ATCC 25618 / H37Rv), UniProt O06139)
T1 sequence (O06139 whole entry): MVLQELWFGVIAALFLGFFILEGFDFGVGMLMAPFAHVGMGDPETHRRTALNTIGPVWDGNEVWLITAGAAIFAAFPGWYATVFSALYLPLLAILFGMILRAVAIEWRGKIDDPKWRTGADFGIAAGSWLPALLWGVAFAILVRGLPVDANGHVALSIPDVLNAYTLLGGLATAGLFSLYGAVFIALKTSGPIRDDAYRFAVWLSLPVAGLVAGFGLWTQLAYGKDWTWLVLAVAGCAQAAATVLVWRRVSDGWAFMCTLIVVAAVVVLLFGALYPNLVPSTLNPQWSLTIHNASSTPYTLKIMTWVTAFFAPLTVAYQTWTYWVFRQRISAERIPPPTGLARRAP
Test: Mtb cytochrome bd inhibition assay

Row | SMILES | pIC50
1 | Cc1c(-c2ccc(-c3ccc(OC(F)(F)F)cc3)nc2)[nH]c2ccccc2c1=O [US10799494, Compound SL-2-25] | 6.54
2 | Cc1c(-c2ccc(Oc3ccc(OC(F)(F)F)cc3)nc2)[nH]c2ccccc2c1=O [US10799494, Compound CK-3-22] | 6.85
3 | CCOC(=O)c1c(-c2ccc(Cc3ccc(OC(F)(F)F)cc3)cc2)[nH]c2ccccc2c1=O [US10799494, Compound GN-1710] | 6.60
4 | Cc1c(-c2cnn(Cc3ccc(OC(F)(F)F)cc3)c2)[nH]c2ccccc2c1=O [US10799494, Compound WDH-2A-9] | 5.19
5 | Cc1c(-c2ccc(-c3ccc(C(F)(F)F)cc3)nc2)[nH]c2ccccc2c1=O [US10799494, Example RKA 142] | 5.69
6 | CC(C)c1c(-c2cnn(Cc3ccc(OC(F)(F)F)cc3)c2)[nH]c2ccccc2c1=O [US10799494, Example WDH-2G-6] | 7.09
7 | O=c1cc(-c2ccc(Cc3ccc(OC(F)(F)F)cc3)cc2)n(O)c2ccccc12 [US10799494, Compound RKA-73] | 6.51
8 | Cc1[nH]c2ccccc2c(=O)c1-c1ccc(Oc2ccc(OC(F)(F)F)cc2)cc1 [US10799494, Compound PG-203] | 7.15
9 | Cc1c(-c2ccc(Cc3ccccc3)cc2)[nH]c2ccccc2c1=O [US10799494, Compound CK-2-88] | 7.70
10 | COc1ccc2c(=O)c(C)c(-c3ccc(N4CCCCC4)cc3)[nH]c2c1 [US10799494, Compound RKA-310] | 5.85
11 | Cc1c(-c2ccc(Oc3ccc(F)cc3)nc2)[nH]c2ccccc2c1=O [US10799494, Compound CK-3-14] | 4.97
12 | COc1c(C)c(-c2ccc(Cc3ccccc3)cc2)nc2ccccc12 [US10799494, Compound CK-3-23] | 5.44
13 | O=c1cc(-c2ccc(Cc3ccc(OC(F)(F)F)cc3)cc2)[nH]c2ccccc12 [US10799494, Compound RKA-70] | 6.12
14 | Cc1c(-c2ccc(-c3ccc(C(F)(F)F)nc3)nc2)[nH]c2ccccc2c1=O [US10799494, Compound PG-128] | 5.35
15 | COc1ccc2c(=O)c(C)c(-c3ccc(Oc4ccc(OC(F)(F)F)cc4)nc3)[nH]c2c1 [US10799494, Compound RKA-259] | 5.44
16 | Cc1c(-c2ccc(N3CCCCC3)cc2)[nH]c2cc(F)cc(F)c2c1=O [US10799494, Compound MTD-403] | 6.57
17 | Cc1c(-c2ccc(N3CCCCC3)cc2)[nH]c2ccccc2c1=O [US10799494, Compound RKA-307] | 6.36
18 | O=c1cc(-c2cnn(Cc3ccc(OC(F)(F)F)cc3)c2)[nH]c2ccccc12 [US10799494, Compound WDH-1W-5] | 4.80
